Assay results taken from patent US20230091848A1, “DISEASE DETECTION AND TREATMENT BASED ON PHENYLACETYL GLUTAMINE LEVELS” (The Cleveland Clinic Foundation, priority 2020, published 2023).

What was measured:
[1] = system: human platelet rich plasma (PRP); test: Platelet aggregometry in platelet rich plasma; assay type: cell-based; details: submaximal ADP
Experimental: ADP (up to 4 μM), TRAP6 (up to 10 μM) and collagen (up to 1.0 μg/mL) were used as indicated to initiate aggregation with constant stirring (600 rpm).

washed human platelets = test: Intracellular Ca2+ in Fura 2 loaded washed platelets; assay type: cell-based; details: sub-maximal (0.02 U) thrombin
Experimental: To prepare washed platelets for intracellular Ca^2+ measurements, 100 nM prostaglandin E1 (PGE-1) was added to PRP and the PRP was then centrifuged at 500×g for 20 min at 22° C. […] For ratiometric fluorescence measurements, washed platelets were incubated with Fura 2-AM (1 μM) at 22° C. for 30 min. Excess Fura 2-AM was removed by centrifugation at 500×g for 30 min.

[2] = system: FeCl3-induced carotid artery injury model; test: Carotid artery FeCl3 injury thrombosis assay; assay type: in vivo, mice; details: i.p. injection 50 mg/kg; vs phenylalanine or saline
Experimental: Briefly, rhodamine 6G (100 μL; 0.5 mg/mL) was injected directly into the right jugular vein to label platelets. The left carotid artery was exposed and injured by placing a FeCl3-soaked filter paper for 1 minute. […] Time to cessation of blood flow through clot formation for all studies was determined by visual inspection by two different investigators. End points were set as cessation of blood flow for 30 seconds to 30 minutes.

O=C(O)CNC(=O)Cc1ccccc1 [PAGly, phenylacetylglycine]
ADP-stimulated platelet aggregation response [1]: augmented stimulus (ADP) dependent platelet aggregation response
thrombin-evoked augmentation of [Ca2+]i (washed human platelets): provoked further rise in [Ca^2+]i in response to sub-maximal thrombin exposure
platelet thrombus formation within the injured carotid artery [2]: induced heightened platelet thrombus formation within the injured carotid artery
time to cessation of flow (occlusion time) [2]: reduced the time to cessation of flow following injury
